The record followed here is publication PMC7333355, “Functional and Regulatory Characterization of Three AMTs in Maize Roots” (Frontiers in Plant Science, 2020).

The target of one series is T1, AtAMT1;3 (Arabidopsis thaliana, UniProt Q9SQH9).
T1 construct: gene AMT1-3
The note with it: 1 mM ammonium chloride.

For the next series, the target named is T2, ZmAMT1.3 (Zea mays, UniProt B4F978).
T2 construct: full-length cDNA from maize root RNA in pCI vector, expressed in Xenopus laevis oocytes; no tag stated
T2 sequence (B4F978 1-488): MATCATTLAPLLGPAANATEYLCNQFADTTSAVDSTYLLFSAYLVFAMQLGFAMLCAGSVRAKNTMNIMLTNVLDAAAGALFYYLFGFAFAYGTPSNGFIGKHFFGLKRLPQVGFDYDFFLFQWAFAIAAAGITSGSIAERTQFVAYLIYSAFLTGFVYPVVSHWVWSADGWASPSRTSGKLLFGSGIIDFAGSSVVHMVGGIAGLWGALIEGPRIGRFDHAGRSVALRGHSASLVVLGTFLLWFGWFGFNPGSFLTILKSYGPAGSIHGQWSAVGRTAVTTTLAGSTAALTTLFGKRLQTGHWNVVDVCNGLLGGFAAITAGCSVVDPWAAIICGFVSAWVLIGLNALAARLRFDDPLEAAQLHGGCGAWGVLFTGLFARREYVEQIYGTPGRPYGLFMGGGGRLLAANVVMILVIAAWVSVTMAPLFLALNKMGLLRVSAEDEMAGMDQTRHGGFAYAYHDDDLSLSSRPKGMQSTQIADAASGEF
As to the kind of experiment: two-electrode voltage clamp, Xenopus oocytes, inhibition of ammonium-induced current. Type of series: cell-based. The note with it: read-out: % inhibition at 10 mM. Background: Two-electrode voltage clamp is typically applied to oocytes expressing channels or transporters.

Another series has as its target T3, ZmAMT1.1b (Zea mays, UniProt B4FV06).
T3 construct: full-length cDNA from maize root RNA in pCI vector, expressed in Xenopus laevis oocytes; no tag stated
T3 sequence (B4FV06 1-489): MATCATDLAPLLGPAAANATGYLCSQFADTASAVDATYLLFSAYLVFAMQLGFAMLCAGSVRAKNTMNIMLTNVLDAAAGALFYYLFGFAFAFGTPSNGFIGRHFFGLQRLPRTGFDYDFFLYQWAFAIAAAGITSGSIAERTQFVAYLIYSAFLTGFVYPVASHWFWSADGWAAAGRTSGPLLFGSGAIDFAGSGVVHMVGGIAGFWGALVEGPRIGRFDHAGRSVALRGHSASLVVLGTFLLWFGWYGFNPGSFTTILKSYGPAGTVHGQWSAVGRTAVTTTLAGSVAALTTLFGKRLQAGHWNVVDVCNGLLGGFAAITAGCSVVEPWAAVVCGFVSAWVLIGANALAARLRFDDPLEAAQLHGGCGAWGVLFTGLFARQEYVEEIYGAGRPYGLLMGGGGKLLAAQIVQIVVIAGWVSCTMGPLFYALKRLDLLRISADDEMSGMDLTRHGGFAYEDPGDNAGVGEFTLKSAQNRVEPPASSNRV
The description is as above. The class given is cell-based. Conditions: read-out: % inhibition at 10 mM.

In the next series the target is T4, ZmAMT1.1a (Zea mays, UniProt B4FRK2).
T4 construct: full-length cDNA from maize root RNA in pCI vector, expressed in Xenopus laevis oocytes; no tag stated
T4 sequence (B4FRK2 1-498): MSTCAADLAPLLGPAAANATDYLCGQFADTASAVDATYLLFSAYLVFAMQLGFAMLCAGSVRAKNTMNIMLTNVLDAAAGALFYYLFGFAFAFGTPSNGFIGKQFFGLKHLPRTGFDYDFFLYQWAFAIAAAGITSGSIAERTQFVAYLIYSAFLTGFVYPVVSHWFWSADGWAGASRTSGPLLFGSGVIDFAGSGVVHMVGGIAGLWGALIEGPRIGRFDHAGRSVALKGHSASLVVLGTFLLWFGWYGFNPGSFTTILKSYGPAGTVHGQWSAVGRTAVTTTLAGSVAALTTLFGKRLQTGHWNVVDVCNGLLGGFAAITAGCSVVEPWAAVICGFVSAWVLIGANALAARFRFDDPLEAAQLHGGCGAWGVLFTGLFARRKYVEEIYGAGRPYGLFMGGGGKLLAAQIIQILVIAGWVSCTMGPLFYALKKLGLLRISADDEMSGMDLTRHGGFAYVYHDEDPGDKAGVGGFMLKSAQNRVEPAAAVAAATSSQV
The description is as above. Type of series: cell-based. The note with it: read-out: % inhibition at 10 mM.

Substrate in series [1]: N
As to the kind of experiment: cells, lysate or membranes. The note with it: added as chloride.

Substrate in series [2]: CN
As to the kind of experiment: two-electrode voltage clamp, Xenopus oocytes, Michaelis-Menten fit of induced currents. Type of series: cell-based, Zea mays. Conditions: pH 7.4, -140 mV, added as chloride.

T1 sequence (Q9SQH9 whole entry): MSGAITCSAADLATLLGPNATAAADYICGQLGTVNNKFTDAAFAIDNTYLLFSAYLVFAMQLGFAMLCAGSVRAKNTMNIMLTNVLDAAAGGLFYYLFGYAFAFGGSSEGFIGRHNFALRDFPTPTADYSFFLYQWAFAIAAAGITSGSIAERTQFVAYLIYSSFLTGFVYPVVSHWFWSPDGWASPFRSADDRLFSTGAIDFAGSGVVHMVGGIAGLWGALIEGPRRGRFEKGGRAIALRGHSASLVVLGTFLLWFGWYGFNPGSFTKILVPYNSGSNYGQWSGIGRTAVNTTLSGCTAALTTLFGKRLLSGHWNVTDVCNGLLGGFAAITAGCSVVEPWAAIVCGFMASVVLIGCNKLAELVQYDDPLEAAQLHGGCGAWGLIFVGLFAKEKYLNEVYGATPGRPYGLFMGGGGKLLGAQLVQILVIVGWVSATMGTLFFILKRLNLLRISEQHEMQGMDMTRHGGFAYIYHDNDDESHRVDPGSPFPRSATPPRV

For `N` [ammonium], the “two-electrode voltage clamp, Xenopus oocytes, induced current” value on AtAMT1;3 was “Significant ammonium-induced currents were detected in AtAMT1;3-expressing oocytes”.

Regarding `NC(=O)CC[C@H](N)C(=O)O` [glutamine], the values for the inhibition at 10000 µM at ZmAMT1.3, at ZmAMT1.1b and on ZmAMT1.1a were 55.4%, 67.5% and 69.9%, respectively.

B1: ZmAMT1.1b (Zea mays) (protein)
chain: MATCATDLAPLLGPAAANATGYLCSQFADTASAVDATYLLFSAYLVFAMQLGFAMLCAGSVRAKNTMNIMLTNVLDAAAGALFYYLFGFAFAFGTPSNGFIGRHFFGLQRLPRTGFDYDFFLYQWAFAIAAAGITSGSIAERTQFVAYLIYSAFLTGFVYPVASHWFWSADGWAAAGRTSGPLLFGSGAIDFAGSGVVHMVGGIAGFWGALVEGPRIGRFDHAGRSVALRGHSASLVVLGTFLLWFGWYGFNPGSFTTILKSYGPAGTVHGQWSAVGRTAVTTTLAGSVAALTTLFGKRLQAGHWNVVDVCNGLLGGFAAITAGCSVVEPWAAVVCGFVSAWVLIGANALAARLRFDDPLEAAQLHGGCGAWGVLFTGLFARQEYVEEIYGAGRPYGLLMGGGGKLLAAQIVQIVVIAGWVSCTMGPLFYALKRLDLLRISADDEMSGMDLTRHGGFAYEDPGDNAGVGEFTLKSAQNRVEPPASSNRV
Consider B1, for which the Km – broadly, the substrate concentration at which the rate is half of its maximum – in series [1] (pH 7.4, -140 mV (potential inferred from Figure 2D range)) was 15.6 µM.

B2: ZmAMT1.3 (Zea mays) (protein)
chain: MATCATTLAPLLGPAANATEYLCNQFADTTSAVDSTYLLFSAYLVFAMQLGFAMLCAGSVRAKNTMNIMLTNVLDAAAGALFYYLFGFAFAYGTPSNGFIGKHFFGLKRLPQVGFDYDFFLFQWAFAIAAAGITSGSIAERTQFVAYLIYSAFLTGFVYPVVSHWVWSADGWASPSRTSGKLLFGSGIIDFAGSSVVHMVGGIAGLWGALIEGPRIGRFDHAGRSVALRGHSASLVVLGTFLLWFGWFGFNPGSFLTILKSYGPAGSIHGQWSAVGRTAVTTTLAGSTAALTTLFGKRLQTGHWNVVDVCNGLLGGFAAITAGCSVVDPWAAIICGFVSAWVLIGLNALAARLRFDDPLEAAQLHGGCGAWGVLFTGLFARREYVEQIYGTPGRPYGLFMGGGGRLLAANVVMILVIAAWVSVTMAPLFLALNKMGLLRVSAEDEMAGMDQTRHGGFAYAYHDDDLSLSSRPKGMQSTQIADAASGEF
Take B2: the Km in series [1] (pH 7.4, -140 mV (potential inferred from Figure 3D range)) is 18.6 ± 2.8 µM.

B3: ZmAMT1.1a (Zea mays) (protein)
chain: MSTCAADLAPLLGPAAANATDYLCGQFADTASAVDATYLLFSAYLVFAMQLGFAMLCAGSVRAKNTMNIMLTNVLDAAAGALFYYLFGFAFAFGTPSNGFIGKQFFGLKHLPRTGFDYDFFLYQWAFAIAAAGITSGSIAERTQFVAYLIYSAFLTGFVYPVVSHWFWSADGWAGASRTSGPLLFGSGVIDFAGSGVVHMVGGIAGLWGALIEGPRIGRFDHAGRSVALKGHSASLVVLGTFLLWFGWYGFNPGSFTTILKSYGPAGTVHGQWSAVGRTAVTTTLAGSVAALTTLFGKRLQTGHWNVVDVCNGLLGGFAAITAGCSVVEPWAAVICGFVSAWVLIGANALAARFRFDDPLEAAQLHGGCGAWGVLFTGLFARRKYVEEIYGAGRPYGLFMGGGGKLLAAQIIQILVIAGWVSCTMGPLFYALKKLGLLRISADDEMSGMDLTRHGGFAYVYHDEDPGDKAGVGGFMLKSAQNRVEPAAAVAAATSSQV
notes: full-length cDNA from maize root RNA in pCI vector, expressed in Xenopus laevis oocytes; no tag stated
For B3, the Km in series [2] stood at 1900 ± 400 µM; in series [1] (pH 7.4, -140 mV), 9.9 ± 1.9 µM.
